According to article PMC6537165 (Slas Discovery, 2019):

System: Wolbachia pipientis (wAlbB) in C6/36 (wAlbB) cells
Experiment: acumen high-throughput anti-Wolbachia assay
Format: cell-based
Conditions: C6/36, 168 h, read-out: anti-Wolbachia IC50 in the acumen assay

IC50: 0.0178 µM
SMILES: C[C@H]1c2cccc(O)c2C(=O)C2=C(O)[C@]3(O)C(=O)C(C(N)=O)=C(O)[C@@H](N(C)C)[C@@H]3[C@@H](O)[C@@H]21 [Doxycycline, doxycycline]
